The results in this text go back to ChEMBL document CHEMBL5506021, “Artificial Intelligence-Assisted Optimization of Antipigmentation Tyrosinase Inhibitors: De Novo Molecular Generation Based on a Low Activity Lead Compound” (J Med Chem, 2024).

The target of data set [1] is T1, Mushroom tyrosinase (Agaricus bisporus, UniProt O42713+Q00024+C7FF04+C7FF05).
Description: Inhibition of mushroom tyrosinase monophenolase activity using L-tyrosine as substrate preincubated for 10 mins followed by substrate addition and measured after 20 mins by absorbance based assay
Data set [2] concerns the target T1, Mushroom tyrosinase. The source holds these as a separate data set.
Description: Inhibition of mushroom tyrosinase diphenolase activity using L-dopamine as substrate preincubated for 10 mins followed by substrate addition and measured after 20 mins by absorbance based assay
Data set [3] is described as follows: Toxicity in wildtype AB zebrafish assessed as effect on growth at 10 to 50 microM incubated for 45 hrs by anatomic microscopic analysis. More on the design: species or system Danio rerio. The following applies: in vivo, dose 10-50 µM.
The species named for data set [4] is Danio rerio. The data set is described as follows: Anti-pigmentation activity in wildtype AB zebrafish assessed as melanin looseness in head at 5 uM incubated for 45 hrs by anatomical microscopic analysis. Type of data set: functional, organism-based.
The nature of data set [5]: Toxicity in wildtype AB zebrafish assessed as effect on phenotype at 1 to 5 microM incubated for 45 hrs by anatomic microscopic analysis. More on the design: species or system Danio rerio. The following applies: in vivo, dose 1-5 µM.
Data set [6] in a line: Toxicity in wildtype AB zebrafish assessed as effect on growth at 1 to 5 microM incubated for 45 hrs by anatomic microscopic analysis. More on the design: species or system Danio rerio. Conditions: in vivo, dose 1-5 µM.
For data set [7], the species on record is Danio rerio. The data set is described as follows: Anti-pigmentation activity in wildtype AB zebrafish assessed as melanin reduction in head at 5 uM incubated for 45 hrs by anatomical microscopic analysis. Type of data set: functional, organism-based.
For data set [8], the species on record is Danio rerio. The data set is described as follows: Anti-pigmentation activity in wildtype AB zebrafish assessed as depigmentation at 5 uM incubated for 45 hrs by anatomical microscopic analysis. Type of data set: functional.
For data set [9] the following is noted: zebrafish, in vivo, 45 h.
Description: Toxicity in wildtype AB zebrafish assessed as minimum toxic concentration measured after 45 hrs
The nature of data set [10]: Toxicity in wildtype AB zebrafish assessed as effect on phenotype at 10 to 50 microM incubated for 45 hrs by anatomic microscopic analysis. The following applies: in vivo, dose 10-50 µM. More on the design: species or system Danio rerio.
Data set [11] can be described thus: Metabolic stability in human plasma assessed as compound remaining at 100 uM incubated for 120 mins by LC/MS analysis. The format is ADME, cell-free. Conditions: read-out: Stability.
A further data set deals with T2, Tyrosinase (Homo sapiens, UniProt P14679).
T2 sequence (P14679 whole entry): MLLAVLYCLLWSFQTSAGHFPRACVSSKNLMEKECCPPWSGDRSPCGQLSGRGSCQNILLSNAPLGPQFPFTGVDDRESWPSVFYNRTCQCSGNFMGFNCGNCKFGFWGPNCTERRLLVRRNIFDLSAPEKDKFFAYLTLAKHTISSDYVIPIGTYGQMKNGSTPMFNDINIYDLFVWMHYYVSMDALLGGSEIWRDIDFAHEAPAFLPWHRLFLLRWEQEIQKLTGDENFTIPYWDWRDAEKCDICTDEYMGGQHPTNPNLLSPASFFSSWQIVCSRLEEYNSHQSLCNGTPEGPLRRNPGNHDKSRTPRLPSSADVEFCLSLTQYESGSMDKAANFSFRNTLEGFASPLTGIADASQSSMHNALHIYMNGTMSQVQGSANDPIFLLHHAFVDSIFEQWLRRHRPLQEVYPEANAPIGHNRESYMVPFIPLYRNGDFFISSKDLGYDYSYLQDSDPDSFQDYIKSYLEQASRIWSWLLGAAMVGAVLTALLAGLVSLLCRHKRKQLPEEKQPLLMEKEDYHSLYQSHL
As to the kind of experiment: Binding affinity to tyrosinase (unknown origin) assessed as dissociation constant by SPR analysis.

Data set [12] in a line: Metabolic stability in human plasma assessed as half-life at 100 uM incubated for 120 mins by LC/MS analysis. Type of data set: ADME, cell-free.
Data set [13] can be described thus: Metabolic stability in human liver microsomes assessed as hepatic extraction ratio at 1.5 uM preincubated for 5 mins followed by NADPH addition and measured after 10 mins by LC/MS analysis. Type of data set: ADME, Microsome. The following applies: time 15 min, read-out: ERH. A general note: Liver microsomes are vesicles of endoplasmic reticulum, rich in cytochrome P450 enzymes.

Data set [14] in a line: Metabolic stability in human liver microsomes assessed as compound remaining at 1.5 uM incubated for 45 mins by LC/MS analysis. Conditions: read-out: Stability. The format is ADME, Microsome.
Data set [15] is described as follows: Metabolic stability in human liver microsomes assessed as intrinsic clearance at 1.5 uM preincubated for 5 mins followed by NADPH addition and measured after 10 mins by LC/MS analysis. Type of data set: ADME, Microsome. Conditions: time 15 min, read-out: CLH.
A short description of data set [16]: Metabolic stability in human liver microsomes assessed as half-life at 1.5 uM preincubated for 5 mins followed by NADPH addition and measured after 10 mins by LC/MS analysis. Conditions: time 15 min. The format is ADME, Microsome.

As usually defined, the IC50 is the concentration that inhibits the measured activity by half. The term Kd denotes the concentration at which binding is half-saturated. For orientation: half-life means the time in which the quantity being followed falls by half.

The structures appear in SMILES notation. Activity calls are given as the source filed them. The rule behind the calls is not given here.

As to `Cc1cc(Cl)ccc1NC(=O)CN1CCCN(C/C=C/c2ccccc2)CC1`, the IC50 on Mushroom tyrosinase [1] and against Mushroom tyrosinase [2] was over 800 µM in each case.

In the case of `Cc1ccc(NC(=O)CN2CCCN(C/C=C/c3ccccc3)CC2)c(C)c1`, the IC50 on Mushroom tyrosinase [1] and against Mushroom tyrosinase [2] was over 800 µM throughout.

For `Cc1ccc(NC(=O)CCCN2CCN(C/C=C/c3ccccc3)CC2)c(C)c1`, the Activity entry in data set [3] was “Toxic”; in data set [5] it was “Non-Toxic”; in data set [6], “Non-Toxic”; in the data set filed under Danio rerio [8], 9.98%; in data set [10], “Toxic”. For the same molecule, the result in the data set listed under Danio rerio [4] and in the data set filed under Danio rerio [7] was Active. Moreover, in data set [9], the MTC worked out at 50 µM. The IC50 at Mushroom tyrosinase [1] is 652.9 µM; on Mushroom tyrosinase [2], over 800 µM.

Take `Cc1ccc(C)c(NC(=O)CCC(=O)N2CCCN(C/C=C/c3ccccc3)CC2)c1`: the IC50 against Mushroom tyrosinase [1] was 393.05 µM; on Mushroom tyrosinase [2], over 800 µM.

Turning to `Cc1ccc(NC(=O)CCC(=O)Nc2cnn(C/C=C/c3ccccc3)c2)c(C)c1`, the IC50 against Mushroom tyrosinase [1] and against Mushroom tyrosinase [2] was over 800 µM throughout.

In the case of `Cc1ccc(F)cc1NC(=O)CCN1CCCN(C/C=C/c2ccccc2)CC1`, the IC50 against Mushroom tyrosinase [1] is 639.85 µM; against Mushroom tyrosinase [2], over 800 µM.

For the molecule `Cc1ccc(NC(=O)CC(=O)N2CCCN(C/C=C/c3ccccc3)CC2)c(C)c1`, the IC50 on Mushroom tyrosinase [1] is 732.35 µM; against Mushroom tyrosinase [2], over 800 µM.

In the case of `Cc1ccc(C)c(NC(=O)CN2CCCN(C/C=C/c3ccccc3)CC2)c1`, the IC50 against Mushroom tyrosinase [1] and against Mushroom tyrosinase [2] was over 800 µM each time.

Turning to `Cc1ccc(/C=C/CN2CCN(C(=O)CCC(=O)Nc3ccccc3O)CC2)cc1`, the remaining at 2 h, 100 µM in data set [11] was 94.6%. Further, on Tyrosinase, the Kd is 198 µM. Besides, in data set [12], the half-life at 100 µM was over 120 min. The MTC in data set [9] was 5 µM. In addition, the IC50 against Mushroom tyrosinase [1] was determined as 11.49 µM; against Mushroom tyrosinase [2], 31.01 µM. Also, the hepatic extraction ratio at 10 min, 1.5 µM in [13] was determined as 0.759. Moreover, in [14], the remaining at 0.75 h, 1.5 µM turned out to be 28.1%. Moreover, the CLint scaled at 1.5 µM in data set [15] is 3.91 L/h/kg. Besides, the half-life at 1.5 µM in data set [16] stood at 24.6 min.

As for `Cc1cccc(C)c1NC(=O)CCCN1CCCN(C/C=C/c2ccccc2)CC1`, the results for the IC50 at Mushroom tyrosinase [1] and on Mushroom tyrosinase [2] were 248.7 µM and over 800 µM, respectively.

As for `Cc1ccc(NC(=O)CCN2CCCN(C/C=C/c3ccccc3)CC2)cc1C`, the half-inhibitory concentration (IC50) against Mushroom tyrosinase [1] and at Mushroom tyrosinase [2] was over 800 µM each time.

Turning to `Cc1ccc(/C=C/CN2CCN(C(=O)CCC(=O)Nc3ccccc3C)CC2)cc1`, the IC50 came to 173 µM against Mushroom tyrosinase [1] and 204.3 µM at Mushroom tyrosinase [2].

In the case of `Cc1ccccc1NC(=O)CN1CCCN(C/C=C/c2ccccc2)CC1`, the IC50 on Mushroom tyrosinase [1] and on Mushroom tyrosinase [2] was over 800 µM throughout.

Regarding `Cc1ccc(NC(=O)CCC(=O)N2CCCN(C/C=C/c3ccccc3)CC2)c(C)c1`, the values for the IC50 on Mushroom tyrosinase [1] and at Mushroom tyrosinase [2] were 681.3 µM and over 800 µM, respectively.

With `Cc1ccc(NC(=O)CCN2CCCN(C/C=C/c3ccccc3)CC2)c(C)c1`, the figures for the IC50 at Mushroom tyrosinase [1] and against Mushroom tyrosinase [2] were 255.4 µM and 465.1 µM, respectively.

As for `Cc1cc(C)c(NC(=O)CCN2CCCN(C/C=C/c3ccccc3)CC2)c(C)c1`, the IC50 is 465.1 µM against Mushroom tyrosinase [1] and over 800 µM at Mushroom tyrosinase [2].

Regarding `Cc1ccc(/C=C/CN2CCN(C(=O)CCCC(=O)Nc3ccccn3)CC2)cc1`, the values for the IC50 at Mushroom tyrosinase [1] and against Mushroom tyrosinase [2] were 192.93 µM and 329.55 µM, respectively.

Turning to `Cc1cccc(C)c1NC(=O)CN1CCN(C/C=C/c2ccccc2)CC1`, the results for the IC50 against Mushroom tyrosinase [1] and on Mushroom tyrosinase [2] were 88.01 µM and 244.6 µM, respectively.

Turning to `Cc1ccc(/C=C/CN2CCN(C(=O)CCC(=O)Nc3ccc(O)cc3)CC2)cc1`, the results for the half-maximal inhibitory concentration (IC50) against Mushroom tyrosinase [1] and on Mushroom tyrosinase [2] were 40.34 µM and 131.77 µM, respectively.

For `Cc1ccc(/C=C/CN2CCN(C(=O)CCC(=O)Nc3cccc(O)c3)CC2)cc1`, the IC50 against Mushroom tyrosinase [1] is 217.17 µM; on Mushroom tyrosinase [2], over 800 µM.

On to `Cc1ccc(NC(=O)CCN2CCCN(C/C=C/c3ccccc3)CC2)cc1`, for which the IC50 against Mushroom tyrosinase [1] is 338.4 µM; against Mushroom tyrosinase [2], 536.05 µM.

As for `Cc1ccc(C)c(NC(=O)CC(=O)N2CCCN(C/C=C/c3ccccc3)CC2)c1`, the figures for the IC50 at Mushroom tyrosinase [1] and against Mushroom tyrosinase [2] were 744.95 µM and over 800 µM, respectively.

On to `Cc1ccc(C)c(NC(=O)CCN2CCCN(C/C=C/c3ccccc3)CC2)c1`, for which the IC50 against Mushroom tyrosinase [1] came out at 234.2 µM; on Mushroom tyrosinase [2], 555.4 µM.
